Reference: US20130267594A1, “PROLYL HYDROXYLASE INHIBITORS AS RADIATION MITIGATORS AND RADIATION PROTECTORS” (priority 2010, published 2013)

How the values were obtained:
[1] = tested on: MEFs expressing shRNA targeting Hif1α; experiment: Clonogenic cell survival assay after ionizing radiation, MEFs with Hif1α silenced; format: cell-based, mouse; details: DMOG 1 mM, FIG. 11A
H3K9me3 = experiment: Western blot of H3K9me3 in Suv39h1/2−/− MEFs (FIG. 4A); format: cell-based, mouse; details: Suv39h1/2−/− cells, DMOG 100 μM/2hours
Experimental: Cell lysates and Western blot analysis: Antibodies used: mHif1α (Santa Cruz Biotechnology, CA); hHIF1α (Abcam, CA); H3K9me3 (Millipore, N.Y.); β-actin (Cell Signaling Technology, Mass.); CHD4 and MTA3 (Bethyl Laboratories, Tex.); Suv39h1 (Novus, CA). To prepare nuclear lysates, cells were resuspended in 500 μl buffer A (10 mM Tris, pH8.0/1 mM EDTA, pH8.0/150 mM NaCl/0.5% NP-40/1 mM PMSF/5 μg/ml leupeptin/20 μg/ml aprotinin), incubated on ice for 15 min and centrifuged at 500 g for 5 min at 4° C. Supernatant was removed and the pellet resuspended in buffer B (20 mM Hepes, pH7.9/400 mM NaCl/1 mM EDTA/0.5 mM DTT/1 mM PMSF/5 μg/ml leupeptin/20 μg/ml aprotinin), incubated on ice for 15 min and cleared by centrifugation (21,000 g for 5 min at 4° C.). For western blots, equal amounts of protein (Bradford Protein Assay kit, Bio-Rad Laboratories, CA) were separated by electrophoresis and transferred to nitrocellulose membranes (Bio-Rad Laboratories, CA). Membranes were blocked with Odyssey Blocking Buffer (Li-Cor, NB), incubated with primary antibodies for 3 h, and washed in PBST (PBS and 0.1% Tween-20) followed by goat anti-mouse IR Dye-800CW or goat anti-rabbit IR Dye-680CW secondary antibodies (Li-Cor, NB). Imaging was performed using the Li-Cor Odyssey Near Infra Red System, and analyzed using the Odyssey software system 3.0 package (Li-Cor, NB).

[2] = tested on: C57BL/6J and Balb/c mice after TBI; experiment: Murine total body irradiation (TBI) model, 30 day survival; format: in vivo, mouse; details: 8 Gy TBI, DMOG 100 mg/kg ip 4 hrs before, 12 hrs and 36 hrs after TBI, 30 days
Experimental: Mice (10 per group) were irradiated (8 Gy TBI) and survival monitored over 30 days. DMOG (100 mg/kg) or saline was administered ip 4 hrs before TBI, and 12 hrs and 36 hrs after TBI.
(§1) Mice: This study was carried out in strict accordance with the recommendations in the Guide for the Care and Use of Laboratory Animals of the National Institutes of Health. The protocol was reviewed and approved by the Dana-Farber Cancer Institute's Animal Care and Use Committee (Protocol number 06-029). All efforts were made to minimize suffering. Male Balb/c mice were purchased from Taconic (NY, USA) and C57BL/6J mice were purchased from The Jackson Laboratory (ME, USA). For total body irradiation (TBI), mice were irradiated at the dose rate of 110 cGy/min using a ^137Cs source (Gammacell® 40Exactor, Best Theratronics, Ottawa, Canada). DMOG (dissolved in saline) or saline was administered IP before and after TBI. The mice were given normal water that had undergone reverse osmosis and powdered food (Purina Pico Lab Chow) after TBI. The animals were closely inspected after TBI for ill-health and the moribund animals were sacrificed according to the guidelines in our approved ACUC protocol. The Kaplan-Meier survival curves were plotted for saline-treated and DMOG-treated cohorts. The statistical analysis of the Kaplan-Meier survival curves was performed with Graph Pad Prism Version 5 using Mantel Log-rank test.

[3] = Toxicity of DMOG alone in mice; format: in vivo, mouse; details: DMOG 100 mg/kg ip
Experimental: as §1
The preliminary observation on the radiation mitigating effects of DMOG in primary fibroblast cell lines prompted the inventors to initiate testing of DMOG in a murine model. […]

MTA3 = format: cell-based; details: MCF7 cells; CoCl2 200 μM time course, FIG. 8F; DMOG only stated
KDM4A = target: T1, KDM4A (Homo sapiens, UniProt O75164); experiment: H3K9me3 immunofluorescent staining in HEK293T cells transiently expressing KDM4A (FIG. 10B); format: cell-based; details: DMOG 1 mM 24 hrs
T1 construct: expressed in transfected cells; host or cells: HEK293T cells
T1 sequence (O75164 1-1064): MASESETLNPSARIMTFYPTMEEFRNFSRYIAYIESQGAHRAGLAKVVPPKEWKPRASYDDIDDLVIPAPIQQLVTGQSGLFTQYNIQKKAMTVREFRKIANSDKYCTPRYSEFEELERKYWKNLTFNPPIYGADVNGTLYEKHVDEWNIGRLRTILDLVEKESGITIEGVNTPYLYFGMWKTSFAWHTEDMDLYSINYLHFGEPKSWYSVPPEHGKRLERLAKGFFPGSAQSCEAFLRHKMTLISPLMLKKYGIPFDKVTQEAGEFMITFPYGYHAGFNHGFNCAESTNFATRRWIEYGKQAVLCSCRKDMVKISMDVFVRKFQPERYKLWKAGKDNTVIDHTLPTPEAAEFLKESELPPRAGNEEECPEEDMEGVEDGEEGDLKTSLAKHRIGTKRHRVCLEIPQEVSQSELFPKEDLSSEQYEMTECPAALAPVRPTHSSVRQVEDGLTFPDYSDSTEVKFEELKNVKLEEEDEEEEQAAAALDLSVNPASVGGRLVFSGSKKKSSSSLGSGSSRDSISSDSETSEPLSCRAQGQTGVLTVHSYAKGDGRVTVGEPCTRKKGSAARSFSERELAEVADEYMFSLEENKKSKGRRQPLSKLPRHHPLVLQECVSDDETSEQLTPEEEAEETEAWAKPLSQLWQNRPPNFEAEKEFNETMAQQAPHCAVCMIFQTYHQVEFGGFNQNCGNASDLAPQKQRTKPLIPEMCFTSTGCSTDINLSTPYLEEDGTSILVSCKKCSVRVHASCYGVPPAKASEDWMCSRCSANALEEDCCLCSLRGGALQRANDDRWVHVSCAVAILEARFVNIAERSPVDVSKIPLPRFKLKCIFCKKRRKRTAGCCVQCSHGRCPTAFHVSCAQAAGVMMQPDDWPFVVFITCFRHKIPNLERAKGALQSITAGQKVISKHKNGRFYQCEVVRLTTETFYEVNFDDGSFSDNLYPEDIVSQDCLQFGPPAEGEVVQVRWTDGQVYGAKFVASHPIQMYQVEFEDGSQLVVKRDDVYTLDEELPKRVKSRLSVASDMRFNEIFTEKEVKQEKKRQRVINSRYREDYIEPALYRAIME

Hif1α = format: cell-based, mouse

## COC(=O)CNC(=O)C(=O)OC [DMOG, dimethyloxalylglycine]
[1]
  radioresistance (clonogenic survival) when Hif1α was silenced: this effect was lost
H3K9me3
  levels of H3K9me3 (Western blot): increased the levels of H3K9me3 in Suv39h1/2−/− cells to a level similar to those seen in Suv39h1/1+/+ cells
[2]; Balb/c mice, FIG. 6B
  survival after TBI: significantly improved the survival
[2]; C57BL/6J mice, FIG. 6A
  survival after TBI: significantly improved the survival
[3]; no irradiation
  toxicity of DMOG alone in mice: does not cause any toxicity
[3]; no irradiation (data not shown)
  mice surviving at 30 days, DMOG alone: 100%
MTA3
  MTA3 protein levels: increased
KDM4A
  H3K9me3 levels in cells expressing KDM4A: restored H3K9me3 levels to near normal
Hif1α
  ability to increase Hif1α levels in SuvDKO MEFs: not altered
